We go through 32 compounds from ChEMBL document CHEMBL5346926, “Optimization of triazolo[4,5-d]pyrimidines towards human CC chemokine receptor 7 (CCR7) antagonists” (Eur J Med Chem, 2023).

What is called pIC50 is −log10 of the IC50, conventionally taken in molar units.

The target in experiment [1] is T1, C-C chemokine receptor type 7 (Homo sapiens, UniProt P32248).
T1 sequence (P32248 whole entry): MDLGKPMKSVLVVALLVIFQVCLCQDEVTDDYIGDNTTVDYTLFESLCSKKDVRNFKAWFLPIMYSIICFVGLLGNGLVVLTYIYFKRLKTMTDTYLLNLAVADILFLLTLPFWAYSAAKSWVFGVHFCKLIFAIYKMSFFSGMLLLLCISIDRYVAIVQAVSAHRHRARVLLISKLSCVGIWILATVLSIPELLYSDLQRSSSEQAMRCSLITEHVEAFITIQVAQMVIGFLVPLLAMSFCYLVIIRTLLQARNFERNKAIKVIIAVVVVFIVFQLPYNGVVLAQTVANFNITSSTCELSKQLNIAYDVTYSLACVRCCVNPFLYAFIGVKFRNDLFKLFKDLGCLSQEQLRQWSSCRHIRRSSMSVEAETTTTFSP
In words: Antagonist activity at CCR7 in human CD4 cells by fluorescence based calcium mobilization assay. The format is functional, cell-based, CD4+ve Th.

Experiment [2] concerns the target T2, C-X-C chemokine receptor type 2 (Homo sapiens, UniProt P25025).
T2 sequence (P25025 whole entry): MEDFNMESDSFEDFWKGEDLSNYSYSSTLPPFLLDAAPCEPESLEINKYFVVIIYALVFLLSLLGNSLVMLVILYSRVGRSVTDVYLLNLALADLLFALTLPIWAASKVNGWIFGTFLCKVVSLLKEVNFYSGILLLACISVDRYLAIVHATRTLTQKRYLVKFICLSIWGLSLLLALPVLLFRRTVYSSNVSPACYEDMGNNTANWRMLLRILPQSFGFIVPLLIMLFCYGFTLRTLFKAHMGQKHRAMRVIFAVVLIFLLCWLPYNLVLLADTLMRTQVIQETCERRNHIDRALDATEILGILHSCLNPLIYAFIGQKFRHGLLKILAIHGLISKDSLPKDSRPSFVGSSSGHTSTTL
The experiment is described as follows: Antagonist activity at CXCR2 in human CD4 cells by fluorescence based calcium mobilization assay. The format is functional, cell-based, CD4+ve Th. For orientation: Calcium assays in cells follow changes in intracellular calcium, usually with a dye or a luminescent sensor.

Experiment [3] has as its target T1, C-C chemokine receptor type 7. The experiment is described as follows: Competitive binding affinity to CCR7 in human U87 cells preincubated for 15 mins followed by CCL19 AF647 addition measured after 30 mins by flow cytometric analysis. Type of experiment: cell-based. (In general: A flow cytometer gives signals particle by particle.)

Each structure is given as a SMILES string. pIC50: −log10 of the molar value. Where only a bound is given, the exact number is not on record here.

For the compound `C[C@H](CO)Nc1nc(SCc2cccc(F)c2F)nc2ccsc12`, in experiment [1], the pIC50 is under 4.52.

`Fc1cccc(CSc2nc(N3CCNCC3)c3nn[nH]c3n2)c1F`: the negative logarithm of the IC50 (pIC50) in experiment [2] and in experiment [1] was under 4.52 in each case.

Turning to `C[C@H](CO)Nc1nc(SCCc2ccccc2)nc2[nH]nnc12`, the pIC50 in experiment [1] was 5.93.

`CCCC(C)CSc1nc(N[C@H](C)CO)c2nn[nH]c2n1` (stereo not given in full): the negative-log IC50 (pIC50) in experiment [2] was 5.59; in experiment [1], 5.07.

Turning to `C[C@H](CO)Nc1nc(OCc2cccc(F)c2F)nc2[nH]nnc12`, in experiment [1], the negative logarithm of the IC50 (pIC50) is 4.62.

As to `C[C@@H](CO)Nc1nc(SCc2cccc(F)c2F)nc2[nH]nnc12`, in experiment [2], the pIC50 is 5.76.

As for `C[C@H](CO)Nc1nc(SCc2cccc(F)c2F)nc2sccc12`, the negative logarithm of the IC50 (pIC50) in experiment [1] is under 4.52.

In the case of `CN(C)CCNc1nc(SCc2cccc(F)c2F)nc2[nH]nnc12`, the negative-log IC50 (pIC50) in experiment [2] and in experiment [1] was under 4.52 each time.

For `CC(C)(CO)Nc1nc(SCc2cccc(F)c2F)nc2[nH]nnc12`, the pIC50 in experiment [1] is 5.64.

With `OCCNc1nc(SCc2cccc(F)c2F)nc2[nH]nnc12`, the negative logarithm of the IC50 (pIC50) in experiment [1] was 5.06.

In the case of `C[C@H](CO)Nc1nc(SCc2cccc(F)c2F)nc2cnccc12`, in experiment [1], the pIC50 was under 4.52.

Take `Cc1ccc([C@H](NC2=NS(=O)(=O)N=C2Nc2ccc(C)c(C(=O)N(C)C)c2O)C(C)(C)C)o1`: the pIC50 in experiment [2] was 5.19.

On to `CCCCCCSc1nc(N[C@H](C)CO)c2nn[nH]c2n1`, for which the figures for the negative-log IC50 (pIC50) in experiment [1] and in experiment [3] were 6.37 and 5.75, respectively.

As for `C[C@H](CO)Nc1nc(SC2CCCCC2)nc2[nH]nnc12`, the pIC50 in experiment [2] was under 4.52.

Consider `C[C@H](CO)Nc1nc(SCC2CCCC2)nc2[nH]nnc12`, for which the pIC50 in experiment [2] was 5.63.

Take `OCCCNc1nc(SCc2cccc(F)c2F)nc2[nH]nnc12`: the negative logarithm of the IC50 (pIC50) in experiment [1] was 4.73.

Regarding `C[C@H](CO)Nc1nc(SCc2cccc(F)c2F)nc2cc[nH]c12`, the pIC50 in experiment [1] is under 4.52.

Take `CN(C)c1nc(SCc2cccc(F)c2F)nc2[nH]nnc12`: the negative-log IC50 (pIC50) in experiment [1] was under 4.52.

Regarding `C[C@H](CO)Nc1nc(SCc2cccc(F)c2F)nc2c1nnn2C`, in experiment [1], the negative logarithm of the IC50 (pIC50) was under 4.52.

Consider `OCCSc1nc(SCc2cccc(F)c2F)nc2[nH]nnc12`, for which the pIC50 in experiment [1] was 5.24.

With `C[C@H](CO)Nc1nc(SCc2cccc(F)c2F)nc2cccnc12`, in experiment [1], the negative-log IC50 (pIC50) was under 4.52.

Regarding `C[C@H](CO)Nc1nc(SCCC2CCCCC2)nc2[nH]nnc12`, the pIC50 in experiment [1] is 5.77.

With `CCCNC(=O)CSc1nc(N[C@H](C)CO)c2nn[nH]c2n1`, in experiment [2], the negative-log IC50 (pIC50) was under 4.52.

Turning to `C[C@H](CO)Nc1nc(SCc2cccc(F)c2F)nc2nc(N)sc12`, the negative logarithm of the IC50 (pIC50) in experiment [1] is under 4.52.

Take `CC(C)(C)OC(=O)N1CCN(c2nc(SCc3cccc(F)c3F)nc3[nH]nnc23)CC1`: the negative logarithm of the IC50 (pIC50) in experiment [2] was 4.94; in experiment [1], under 4.52.

In the case of `Fc1cccc(CSc2nc(NCC3CC3)c3nn[nH]c3n2)c1F`, the negative logarithm of the IC50 (pIC50) in experiment [2] is 5.53; in experiment [1], under 4.52.

Take `C[C@H](CO)Nc1nc(SCc2cccc(F)c2F)nc2c1CNCC2`: the negative logarithm of the IC50 (pIC50) in experiment [1] was under 4.52.

Consider `C[C@H](CO)Nc1nc(Sc2ccccc2)nc2[nH]nnc12`, for which, in experiment [1], the pIC50 was under 4.52.

For the compound `CC(C)CCCCSc1nc(N[C@H](C)CO)c2nn[nH]c2n1`, in experiment [1], the negative-log IC50 (pIC50) was 5.28.

Consider `C[C@H](CCO)Nc1nc(SCc2cccc(F)c2F)nc2[nH]nnc12`, for which the negative-log IC50 (pIC50) in experiment [2] is 5.68; in experiment [1] it was 5.15.

Take `CCCOCCSc1nc(N[C@H](C)CO)c2nn[nH]c2n1`: the pIC50 in experiment [1] is 4.53.

On to `COCCNc1nc(SCc2cccc(F)c2F)nc2[nH]nnc12`, for which the results for the negative-log IC50 (pIC50) in experiment [2] and in experiment [1] were 5.06 and 4.76, respectively.
